# US9695155B2, “Herbicidal substituted pyrimidinyloxy benzene compounds” (E. I. DU PONT DE NEMOURS AND COMPANY, priority 2013, dated 2017)
# Experiments:
# giant foxtail = assay: Test C postemergence; assay type: in vivo, Setaria faberii
# How it was run: (§1)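 Seeds were sown in loam–sand blend and sprayed preemergence, while plants at 1- to 4-leaf stage (2–18 cm) in peat-based medium received postemergence sprays; test chemicals were formulated in a non-phytotoxic solvent with surfactant. After 13–15 days in a greenhouse, injury was rated visually against controls, 0 (no effect) to 100 (complete control).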
# pigweed [1] = assay: Test C preemergence; assay type: in vivo, Amaranthus retroflexus; conditions: preemergence
# How it was run: as §1
# Italian ryegrass = assay: Test C preemergence; assay type: in vivo, Lolium multiflorum; conditions: preemergence
# How it was run: as §1
# wheat, winter = assay: Test C postemergence; assay type: in vivo, Triticum aestivum
# How it was run: as §1
# ragweed = assay: Test C preemergence; assay type: in vivo, Ambrosia elatior; conditions: preemergence
# How it was run: as §1
# yellow nutsedge [2] = assay: Test C postemergence; assay type: in vivo, Cyperus esculentus
# How it was run: as §1
# blackgrass [3] = assay: Test C postemergence; assay type: in vivo, Alopecurus myosuroides
# How it was run: as §1
# corn = assay: Test C postemergence; assay type: in vivo, Zea mays
# How it was run: as §1
# soybean = assay: Test C preemergence; assay type: in vivo, Glycine max; conditions: preemergence
# How it was run: as §1
# barnyardgrass = assay: Test C postemergence; assay type: in vivo, Echinochloa crus-galli
# How it was run: as §1
# morningglory = assay: Test C preemergence; assay type: in vivo, Ipomoea coccinea; conditions: preemergence
# How it was run: as §1
# yellow nutsedge [4] = assay: Test C preemergence; assay type: in vivo, Cyperus esculentus; conditions: preemergence
# How it was run: as §1
# pigweed [5] = assay: Test A preemergence; assay type: in vivo, Amaranthus retroflexus; conditions: 0 to 100 scale where 0 is no effect and 100 is complete control
# How it was run: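 Pre- and postemergence greenhouse screen. Soil: loam + sand. Spray carrier: solvent mixture, non-phytotoxic, with surfactant. Post timing at 1–2 leaves, height 2–10 cm. Readout: visual injury on a 0–100 scale roughly 10 days after application, untreated plants as reference.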
# chickweed = assay: Test C postemergence; assay type: in vivo, Stellaria media
# How it was run: as §1
# blackgrass [6] = assay: Test C preemergence; assay type: in vivo, Alopecurus myosuroides; conditions: for Blackgrass plant response rating: preemergence
# How it was run: as §1
# wild oat = assay: Test C postemergence; assay type: in vivo, Avena fatua
# How it was run: as §1
# [7] = 16 g ai/ha, postemergence, 0 is no effect, 100 is complete control
# [8] = 31 g ai/ha, postemergence, visual rating, scale 0 to 100 (0 no effect, 100 complete control), 13 to 15 days
# [9] = 125 g ai/ha, postemergence, visual rating, scale 0 to 100 (0 no effect, 100 complete control)
# [10] = Postemergence, 62 g ai/ha, scale 0 to 100 (0 no effect, 100 complete control)
# [11] = 16 g ai/ha, scale 0 to 100 (0 no effect, 100 complete control)
# [12] = 62 g ai/ha, scale 0 (no effect) to 100 (complete control)
# [13] = 125 g ai/ha, scale 0 (no effect) to 100 (complete control)
compound,measurement,setting,value
CCCOc1cnn(-c2c(C#N)cccc2Oc2ncc(Cl)cn2)c1 [Compound 150],"Plant response rating (0 to 100), Foxtail, Giant",giant foxtail; [7],5
same,"Foxtail, Giant plant response rating",giant foxtail; [8],20
same,"Plant response rating, Foxtail, Giant",giant foxtail; [9],25
same,"Plant response rating, Foxtail, Giant",giant foxtail; [10],20
same,Pigweed plant response rating,pigweed [1]; [11],55
same,Pigweed plant response rating,pigweed [1]; [12],100
same,Pigweed plant response rating,pigweed [1]; [13],100
same,"Ryegrass, Italian plant response rating",Italian ryegrass; [11],0
same,"Ryegrass, Italian plant response rating",Italian ryegrass; [12],30
same,"Ryegrass, Italian plant response rating",Italian ryegrass; [13],50
same,"Plant response rating (0 to 100), Wheat","wheat, winter; [7]",5
same,Wheat plant response rating,"wheat, winter; [8]",5
same,"Plant response rating, Wheat","wheat, winter; [9]",25
same,"Plant response rating, Wheat","wheat, winter; [10]",5
same,Ragweed plant response rating,ragweed; [11],0
same,Ragweed plant response rating,ragweed; [12],25
same,Ragweed plant response rating,ragweed; [13],55
same,"Plant response rating (0 to 100), Nutsedge, Yellow",yellow nutsedge [2]; [7],0
same,"Nutsedge, Yellow plant response rating",yellow nutsedge [2]; [8],0
same,"Plant response rating, Nutsedge, Yellow",yellow nutsedge [2]; [9],5
same,"Plant response rating, Nutsedge, Yellow",yellow nutsedge [2]; [10],15
same,"Plant response rating (0 to 100), Blackgrass",blackgrass [3]; [7],5
same,Blackgrass plant response rating,blackgrass [3]; [8],5
same,"Plant response rating, Blackgrass",blackgrass [3]; [9],10
same,"Plant response rating, Blackgrass",blackgrass [3]; [10],10
same,"Plant response rating (0 to 100), Corn",corn; [7],5
same,Corn plant response rating,corn; [8],10
same,"Plant response rating, Corn",corn; [9],10
same,"Plant response rating, Corn",corn; [10],10
same,Soybean plant response rating,soybean; [11],0
same,Soybean plant response rating,soybean; [12],45
same,Soybean plant response rating,soybean; [13],90
same,"Plant response rating (0 to 100), Barnyardgrass",barnyardgrass; [7],5
same,Barnyardgrass plant response rating,barnyardgrass; [8],5
same,"Plant response rating, Barnyardgrass",barnyardgrass; [9],5
same,"Plant response rating, Barnyardgrass",barnyardgrass; [10],5
same,Morningglory plant response rating,morningglory; [11],0
same,Morningglory plant response rating,morningglory; [12],45
same,Morningglory plant response rating,morningglory; [13],75
same,"Nutsedge, Yellow plant response rating",yellow nutsedge [4]; [11],0
same,"Nutsedge, Yellow plant response rating",yellow nutsedge [4]; [12],25
same,"Nutsedge, Yellow plant response rating",yellow nutsedge [4]; [13],40
same,"Plant response rating, Pigweed",pigweed [5]; 125 g ai/ha,100
same,Pigweed plant response rating,pigweed [5]; 500 g ai/ha,100
same,"Plant response rating (0 to 100), Chickweed",chickweed; [7],50
same,Chickweed plant response rating,chickweed; [8],65
same,"Plant response rating, Chickweed",chickweed; [9],70
same,"Plant response rating, Chickweed",chickweed; [10],65
same,Blackgrass plant response rating,blackgrass [6]; [11],0
same,Blackgrass plant response rating,blackgrass [6]; [12],50
same,Blackgrass plant response rating,blackgrass [6]; [13],50
same,"Plant response rating, Blackgrass","blackgrass [6]; Preemergence, 31 g ai/ha, scale 0 to 100, 0 no effect, 100 complete control",10
same,"Plant response rating (0 to 100), Oat, Wild",wild oat; [7],5
same,"Oat, Wild plant response rating",wild oat; [8],5
same,"Plant response rating, Oat, Wild",wild oat; [9],5
same,"Plant response rating, Oat, Wild",wild oat; [10],5
